Key:
late watergrass [1] = assay: Test Example 1: herbicidal activity, application before weed generation under submerged conditions (Table 16, symbol A); format: in vivo, late watergrass (Echinochloa oryzicola); conditions: amount of applied herbicide 320 g/ha
How it was run: (§1)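 Alluvial soil was flooded to 4 cm depth, weed seeds were sown mixed and 2.5-leaf rice seedlings were transplanted. On sowing day, the compound's emulsion, diluted in water to a set dose, was applied to the water surface. Plants grew at 25–30 °C and were scored 0–5 after three weeks.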

Japanese bulrush = assay: Test Example 1: herbicidal activity, application before weed generation under submerged conditions (Table 16, symbol B); format: in vivo, Japanese bulrush (Schoenoplectus juncoides); conditions: amount of applied herbicide 320 g/ha
How it was run: as §1

late watergrass [2] = assay: Test Example 2: herbicidal activity, application during weed generation under submerged conditions (Table 17, symbol A); format: in vivo, late watergrass (Echinochloa oryzicola); conditions: AAH 320 g/ha; application during weed generation, submerged conditions
How it was run: (§2)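 In this pot test, flooded alluvial soil (water depth 4 cm) holds all three species sown as a mixture. Once seedlings have one to two leaves, the compound's emulsion, thinned with water to the intended dose, is poured on the water; grading follows after three weeks on the earlier criteria.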

oval-leafed pondweed = assay: Test Example 2: herbicidal activity, application during weed generation under submerged conditions (Table 17, symbol C); format: in vivo, oval-leafed pondweed (Monochoria vaginalis); conditions: AAH 320 g/ha; application during weed generation, submerged conditions
How it was run: as §2

barnyard grass [3] = assay: Test Example 3: herbicidal effect by foliage application, Wagner pot (Table 18, symbol H); format: in vivo, barnyard grass (Echinochloa crus-galli); conditions: 320 g/ha
How it was run: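 Plants were sown in alluvial soil held under 0.1–0.5 cm standing water and grown 14 days in a greenhouse at 25–30 °C. An emulsifiable formulation, water-diluted to the set dose, was then sprayed onto the foliage, and effects were scored three weeks later using previously defined criteria.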

barnyard grass [4] = assay: Test Example 4: herbicidal effect by soil treatment (Table 19, symbol H); format: in vivo, barnyard grass (Echinochloa crus-galli); conditions: amount of applied herbicide 320 g/ha
How it was run: (§3)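 Pre-emergence style soil spray: seeds under ~1.5 cm sterilized diluvial soil received a uniform coat of emulsion diluted to the predetermined herbicide amount. Greenhouse 25–30° C; readout at week three on previously defined criteria.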

Italian ryegrass = assay: Test Example 4: herbicidal effect by soil treatment (Table 19, symbol K); format: in vivo, Italian ryegrass (Lolium multiflorum); conditions: amount of applied herbicide 320 g/ha
How it was run: as §3

windgrass [5] = assay: Test Example 4: herbicidal effect by soil treatment (Table 19, symbol L); format: in vivo, windgrass (Apera spica-venti); conditions: amount of applied herbicide 320 g/ha
How it was run: as §3

velvetleaf = assay: Test Example 4: herbicidal effect by soil treatment (Table 19, symbol M); format: in vivo, velvetleaf (Abutilon theophrasti); conditions: amount of applied herbicide 320 g/ha
How it was run: as §3

lambsquarters = assay: Test Example 4: herbicidal effect by soil treatment (Table 19, symbol O); format: in vivo, lambsquarters (Chenopodium album); conditions: amount of applied herbicide 320 g/ha
How it was run: as §3

chickweed [6] = assay: Test Example 4: herbicidal effect by soil treatment (Table 19, symbol P); format: in vivo, common chickweed (Stellaria media); conditions: amount of applied herbicide 320 g/ha
How it was run: as §3

persian speedwell [7] = assay: Test Example 4: herbicidal effect by soil treatment (Table 19, symbol R); format: in vivo, Persian speedwell (Veronica persica); conditions: amount of applied herbicide 320 g/ha
How it was run: as §3

green foxtail = assay: Test Example 5: herbicidal effect by foliage application, plastic box (Table 20, symbol G); format: in vivo, green foxtail (Setaria viridis); conditions: 320 g/ha
How it was run: (§4)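 Plants were sown into sterilized diluvial soil under about 1.5 cm cover and kept in a greenhouse at 25° C. to 30° C. Fourteen days on, foliage received an even spray of the diluted emulsion. Herbicidal or crop effect was judged three weeks afterwards.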

windgrass [8] = assay: Test Example 5: herbicidal effect by foliage application, plastic box (Table 20, symbol L); format: in vivo, windgrass (Apera spica-venti); conditions: 320 g/ha
How it was run: as §4

redroot pigweed = assay: Test Example 5: herbicidal effect by foliage application, plastic box (Table 20, symbol N); format: in vivo, redroot pigweed (Amaranthus retroflexus); conditions: 320 g/ha
How it was run: as §4

chickweed [9] = assay: Test Example 5: herbicidal effect by foliage application, plastic box (Table 20, symbol P); format: in vivo, common chickweed (Stellaria media); conditions: 320 g/ha
How it was run: as §4

persian speedwell [10] = assay: Test Example 5: herbicidal effect by foliage application, plastic box (Table 20, symbol R); format: in vivo, Persian speedwell (Veronica persica); conditions: 320 g/ha
How it was run: as §4

[11] = foliage application after 14-day growth, evaluated three weeks after application
[12] = foliage application, three weeks after application

Question: What does the source list for COc1ccc2c(-c3c(OC(=O)C4CCCCC4)c(C)nn(C)c3=O)c(-c3ccccc3OC)sc2c1 [3-156]?
Answer: Herbicidal effect, A: late watergrass (late watergrass [1]): 5 (Herbicidal rate of 90% or more (almost completely withered)); Herbicidal effect, B: Japanese bulrush (Japanese bulrush): 4 (Herbicidal rate of 70% or more and less than 90%); herbicidal effect rating, A: late watergrass (late watergrass [2]): 3 (Herbicidal rate of 40% or more and less than 70%); herbicidal effect rating, C: oval-leafed pondweed (oval-leafed pondweed): 5 (Herbicidal rate of 90% or more (almost completely withered)); herbicidal effect on barnyard grass (H) (barnyard grass [3]): 5 (Herbicidal rate of 90% or more (almost completely withered)); Herbicidal effect by soil treatment, H: barnyard grass (barnyard grass [4]): 0 (Herbicidal rate of 5% or less (almost no effect)); Herbicidal effect by soil treatment, K: Italian ryegrass (Italian ryegrass): 0 (Herbicidal rate of 5% or less (almost no effect)); Herbicidal effect by soil treatment, L: windgrass (windgrass [5]): 0 (Herbicidal rate of 5% or less (almost no effect)); Herbicidal effect by soil treatment, M: velvetleaf (velvetleaf): 0 (Herbicidal rate of 5% or less (almost no effect)); Herbicidal effect by soil treatment, O: lambsquarters (lambsquarters): 0 (Herbicidal rate of 5% or less (almost no effect)); Herbicidal effect by soil treatment, P: chickweed (chickweed [6]): 3 (Herbicidal rate of 40% or more and less than 70%); Herbicidal effect by soil treatment, R: persian speedwell (persian speedwell [7]): 4 (Herbicidal rate of 70% or more and less than 90%); herbicidal effect on G: green foxtail (evaluation grade 0-5) (green foxtail; [11]): 5 (Herbicidal rate of 90% or more (almost completely withered)); herbicidal effect on L: windgrass (evaluation grade 0-5) (windgrass [8]; [11]): 5 (Herbicidal rate of 90% or more (almost completely withered)); herbicidal effect on N: redroot pigweed (evaluation grade 0-5) (redroot pigweed; [11]): 5 (Herbicidal rate of 90% or more (almost completely withered)); herbicidal effect on P: chickweed (evaluation grade 0-5) (chickweed [9]; [11]): 5 (Herbicidal rate of 90% or more (almost completely withered)); herbicidal effect on R: persian speedwell (evaluation grade 0-5) (persian speedwell [10]; [11]): 5 (Herbicidal rate of 90% or more (almost completely withered))

Question: With COc1ccccc1-c1sc2cc(OC(F)F)ccc2c1-c1c(O)c(C)nn(C)c1=O [3-113] as the molecule, how does the “Herbicidal effect, A: late watergrass” value (late watergrass [1]) read?
Answer: 4 (Herbicidal rate of 70% or more and less than 90%)

Question: And the “Herbicidal effect, B: Japanese bulrush” value (Japanese bulrush)?
Answer: 3 (Herbicidal rate of 40% or more and less than 70%)

Question: And the “herbicidal effect rating, A: late watergrass” value (late watergrass [2])?
Answer: 0 (Herbicidal rate of 5% or less (almost no effect))

Question: What about the “herbicidal effect rating, C: oval-leafed pondweed” value (oval-leafed pondweed) of the same molecule?
Answer: 0 (Herbicidal rate of 5% or less (almost no effect))

Question: And the “herbicidal effect on barnyard grass (H)” value (barnyard grass [3])?
Answer: 5 (Herbicidal rate of 90% or more (almost completely withered))

Question: And the “H: barnyard grass, herbicidal effect grade” value (barnyard grass [4])?
Answer: 5 (Herbicidal rate of 90% or more (almost completely withered))

Question: What about the “K: Italian ryegrass, herbicidal effect grade” value (Italian ryegrass) of the same molecule?
Answer: 5 (Herbicidal rate of 90% or more (almost completely withered))

Question: And the “L: windgrass, herbicidal effect grade” value (windgrass [5])?
Answer: 5 (Herbicidal rate of 90% or more (almost completely withered))

Question: And the “M: velvetleaf, herbicidal effect grade” value (velvetleaf)?
Answer: 4 (Herbicidal rate of 70% or more and less than 90%)

Question: And the “O: lambsquarters, herbicidal effect grade” value (lambsquarters)?
Answer: 5 (Herbicidal rate of 90% or more (almost completely withered))

Question: What about the “P: chickweed, herbicidal effect grade” value (chickweed [6]) of the same molecule?
Answer: 5 (Herbicidal rate of 90% or more (almost completely withered))

Question: What about the “R: persian speedwell, herbicidal effect grade” value (persian speedwell [7]) of the same molecule?
Answer: 5 (Herbicidal rate of 90% or more (almost completely withered))

Question: And the “G: green foxtail, herbicidal effect grade” value (green foxtail; [12])?
Answer: 5 (Herbicidal rate of 90% or more (almost completely withered))

Question: And the “L: windgrass, herbicidal effect grade” value (windgrass [8]; [12])?
Answer: 5 (Herbicidal rate of 90% or more (almost completely withered))

Question: And the “N: redroot pigweed, herbicidal effect grade” value (redroot pigweed; [12])?
Answer: 5 (Herbicidal rate of 90% or more (almost completely withered))

Question: What about the “P: chickweed, herbicidal effect grade” value (chickweed [9]; [12]) of the same molecule?
Answer: 5 (Herbicidal rate of 90% or more (almost completely withered))

Question: What about the “R: persian speedwell, herbicidal effect grade” value (persian speedwell [10]; [12]) of the same molecule?
Answer: 5 (Herbicidal rate of 90% or more (almost completely withered))
